Reference: publication PMC6540285, “Evaluation of Protein Kinase Inhibitors with PLK4 Cross-Over Potential in a Pre-Clinical Model of Cancer” (International Journal of Molecular Sciences, 2019)

Assays:
ABL1 F317L = ABL1 F317L (Homo sapiens, UniProt P00519, F317L); test: SelectScreen kinase profiling, ZLYTE; assay type: biochemical
ABL1 H396P = ABL1 H396P (Homo sapiens, UniProt P00519, H396P); test: SelectScreen kinase profiling, LanthaScreen binding
ABL1 M351T = ABL1 M351T (Homo sapiens, UniProt P00519, M351T); test: as above
ALK C1156Y = ALK C1156Y (Homo sapiens, UniProt Q9UM73, C1156Y); test: as above
AMPK (A1/B2/G2) = AMPK (A1/B2/G2) (Homo sapiens, UniProt Q13131); test: SelectScreen kinase profiling, ZLYTE; assay type: biochemical
AMPK (A1/B2/G3) = AMPK (A1/B2/G3) (Homo sapiens, UniProt Q13131); test: SelectScreen kinase profiling, ZLYTE; assay type: biochemical
BMPR1B (ALK6) = BMPR1B (ALK6) (Homo sapiens, UniProt O00238); test: SelectScreen kinase profiling, LanthaScreen binding
CAMK4 (CaMKIV) = CAMK4 (CaMKIV) (Homo sapiens, UniProt Q16566); test: SelectScreen kinase profiling, ZLYTE; assay type: biochemical
CDK11 (Inactive) = CDK11 (Inactive) (Homo sapiens, UniProt Q9BWU1); test: SelectScreen kinase profiling, LanthaScreen binding
CDK11/cyclin C = CDK11/cyclin C (Homo sapiens, UniProt Q9BWU1); test: as above
CLK4 = CLK4 (Homo sapiens, UniProt Q9HAZ1); test: as above; conditions: CLK4, 10 µM
CSNK1A1 (CK1 alpha 1) = CSNK1A1 (CK1 alpha 1) (Homo sapiens, UniProt P48729); test: SelectScreen kinase profiling, ZLYTE; assay type: biochemical
CSNK2A2 (CK2 alpha 2) = CSNK2A2 (CK2 alpha 2) (Homo sapiens, UniProt P19784); test: SelectScreen kinase profiling, ZLYTE; assay type: biochemical
ERN1 = ERN1 (Homo sapiens, UniProt O75460); test: SelectScreen kinase profiling, LanthaScreen binding; conditions: ERN1, 10 µM
JAK2 JH1 JH2 = biological target: T1, JAK2 JH1 JH2 (Homo sapiens, UniProt O60674); test: SelectScreen kinase profiling, ZLYTE; assay type: biochemical; conditions: JAK2 JH1 JH2, 10 µM
T1 construct: JAK2 JH1 JH2

LATS2 = LATS2 (Homo sapiens, UniProt Q9NRM7); test: SelectScreen kinase profiling, LanthaScreen binding; conditions: LATS2, 10 µM
LIMK2 = LIMK2 (Homo sapiens, UniProt P53671); test: as above; conditions: LIMK2, 10 µM
LRRK2 G2019S FL = LRRK2 G2019S FL (Homo sapiens, UniProt Q5S007, G2019S); test: SelectScreen kinase profiling, Adapta; assay type: biochemical
LRRK2 I2020T = LRRK2 I2020T (Homo sapiens, UniProt Q5S007, I2020T); test: SelectScreen kinase profiling, Adapta; assay type: biochemical
MAP3K2 (MEKK2) = MAP3K2 (MEKK2) (Homo sapiens, UniProt Q9Y2U5); test: SelectScreen kinase profiling, LanthaScreen binding
MAP3K5 (ASK1) = MAP3K5 (ASK1) (Homo sapiens, UniProt Q99683); test: as above
MAP4K4 (HGK) = MAP4K4 (HGK) (Homo sapiens, UniProt O95819); test: SelectScreen kinase profiling, ZLYTE; assay type: biochemical
MAPK9 (JNK2) = MAPK9 (JNK2) (Homo sapiens, UniProt P45984); test: SelectScreen kinase profiling, ZLYTE; assay type: biochemical
NTRK1 (TRKA) = NTRK1 (TRKA) (Homo sapiens, UniProt P04629); test: SelectScreen kinase profiling, ZLYTE; assay type: biochemical
PDK1 Direct = PDK1 Direct (Homo sapiens, UniProt O15530); test: SelectScreen kinase profiling, ZLYTE; assay type: biochemical
PI4K2B (PI4K2 beta) = PI4K2B (PI4K2 beta) (Homo sapiens, UniProt Q8TCG2); test: SelectScreen kinase profiling, Adapta; assay type: biochemical
PIK3C2G (PI3K-C2 gamma) = PIK3C2G (PI3K-C2 gamma) (Homo sapiens, UniProt O75747); test: SelectScreen kinase profiling, Adapta; assay type: biochemical
PIK3CG (p110 gamma) = PIK3CG (p110 gamma) (Homo sapiens, UniProt P48736); test: SelectScreen kinase profiling, Adapta; assay type: biochemical
PIM3 = PIM3 (Homo sapiens, UniProt Q86V86); test: SelectScreen kinase profiling, ZLYTE; assay type: biochemical; conditions: PIM3, 10 µM
PRKACA (PKA) = PRKACA (PKA) (Homo sapiens, UniProt P17612); test: SelectScreen kinase profiling, ZLYTE; assay type: biochemical
PRKX = PRKX (Homo sapiens, UniProt P51817); test: SelectScreen kinase profiling, ZLYTE; assay type: biochemical
RET M918T = RET M918T (Homo sapiens, UniProt P07949, M918T); test: SelectScreen kinase profiling, LanthaScreen binding
RET S891A = RET S891A (Homo sapiens, UniProt P07949, S891A); test: SelectScreen kinase profiling, ZLYTE; assay type: biochemical
RPS6KA4 (MSK2) = RPS6KA4 (MSK2) (Homo sapiens, UniProt O75676); test: SelectScreen kinase profiling, ZLYTE; assay type: biochemical
SGKL (SGK3) = SGKL (SGK3) (Homo sapiens, UniProt Q96BR1); test: SelectScreen kinase profiling, ZLYTE; assay type: biochemical
TESK1 = TESK1 (Homo sapiens, UniProt Q15569); test: SelectScreen kinase profiling, LanthaScreen binding; conditions: TESK1, 10 µM
Description: Kinase Technology % Inhibition Avg Kinase Technology % Inhibition Avg […]
TESK1 LanthaScreen 37 ZAP70 ZLYTE 24
cleavage (Thermo Fisher Scientific, USA)

P450 2C19 = P450 2C19 (Homo sapiens, UniProt P33261); test: SelectScreen P450 Vivid biochemical assay; conditions: 10000nM; substrate EOMCC
P450 2C9 = P450 2C9 (Homo sapiens, UniProt P11712); test: SelectScreen P450 Vivid biochemical assay; conditions: 10000nM; substrate BOMF

LRRK2 I2020T, sequence (Q5S007 whole entry I2020T): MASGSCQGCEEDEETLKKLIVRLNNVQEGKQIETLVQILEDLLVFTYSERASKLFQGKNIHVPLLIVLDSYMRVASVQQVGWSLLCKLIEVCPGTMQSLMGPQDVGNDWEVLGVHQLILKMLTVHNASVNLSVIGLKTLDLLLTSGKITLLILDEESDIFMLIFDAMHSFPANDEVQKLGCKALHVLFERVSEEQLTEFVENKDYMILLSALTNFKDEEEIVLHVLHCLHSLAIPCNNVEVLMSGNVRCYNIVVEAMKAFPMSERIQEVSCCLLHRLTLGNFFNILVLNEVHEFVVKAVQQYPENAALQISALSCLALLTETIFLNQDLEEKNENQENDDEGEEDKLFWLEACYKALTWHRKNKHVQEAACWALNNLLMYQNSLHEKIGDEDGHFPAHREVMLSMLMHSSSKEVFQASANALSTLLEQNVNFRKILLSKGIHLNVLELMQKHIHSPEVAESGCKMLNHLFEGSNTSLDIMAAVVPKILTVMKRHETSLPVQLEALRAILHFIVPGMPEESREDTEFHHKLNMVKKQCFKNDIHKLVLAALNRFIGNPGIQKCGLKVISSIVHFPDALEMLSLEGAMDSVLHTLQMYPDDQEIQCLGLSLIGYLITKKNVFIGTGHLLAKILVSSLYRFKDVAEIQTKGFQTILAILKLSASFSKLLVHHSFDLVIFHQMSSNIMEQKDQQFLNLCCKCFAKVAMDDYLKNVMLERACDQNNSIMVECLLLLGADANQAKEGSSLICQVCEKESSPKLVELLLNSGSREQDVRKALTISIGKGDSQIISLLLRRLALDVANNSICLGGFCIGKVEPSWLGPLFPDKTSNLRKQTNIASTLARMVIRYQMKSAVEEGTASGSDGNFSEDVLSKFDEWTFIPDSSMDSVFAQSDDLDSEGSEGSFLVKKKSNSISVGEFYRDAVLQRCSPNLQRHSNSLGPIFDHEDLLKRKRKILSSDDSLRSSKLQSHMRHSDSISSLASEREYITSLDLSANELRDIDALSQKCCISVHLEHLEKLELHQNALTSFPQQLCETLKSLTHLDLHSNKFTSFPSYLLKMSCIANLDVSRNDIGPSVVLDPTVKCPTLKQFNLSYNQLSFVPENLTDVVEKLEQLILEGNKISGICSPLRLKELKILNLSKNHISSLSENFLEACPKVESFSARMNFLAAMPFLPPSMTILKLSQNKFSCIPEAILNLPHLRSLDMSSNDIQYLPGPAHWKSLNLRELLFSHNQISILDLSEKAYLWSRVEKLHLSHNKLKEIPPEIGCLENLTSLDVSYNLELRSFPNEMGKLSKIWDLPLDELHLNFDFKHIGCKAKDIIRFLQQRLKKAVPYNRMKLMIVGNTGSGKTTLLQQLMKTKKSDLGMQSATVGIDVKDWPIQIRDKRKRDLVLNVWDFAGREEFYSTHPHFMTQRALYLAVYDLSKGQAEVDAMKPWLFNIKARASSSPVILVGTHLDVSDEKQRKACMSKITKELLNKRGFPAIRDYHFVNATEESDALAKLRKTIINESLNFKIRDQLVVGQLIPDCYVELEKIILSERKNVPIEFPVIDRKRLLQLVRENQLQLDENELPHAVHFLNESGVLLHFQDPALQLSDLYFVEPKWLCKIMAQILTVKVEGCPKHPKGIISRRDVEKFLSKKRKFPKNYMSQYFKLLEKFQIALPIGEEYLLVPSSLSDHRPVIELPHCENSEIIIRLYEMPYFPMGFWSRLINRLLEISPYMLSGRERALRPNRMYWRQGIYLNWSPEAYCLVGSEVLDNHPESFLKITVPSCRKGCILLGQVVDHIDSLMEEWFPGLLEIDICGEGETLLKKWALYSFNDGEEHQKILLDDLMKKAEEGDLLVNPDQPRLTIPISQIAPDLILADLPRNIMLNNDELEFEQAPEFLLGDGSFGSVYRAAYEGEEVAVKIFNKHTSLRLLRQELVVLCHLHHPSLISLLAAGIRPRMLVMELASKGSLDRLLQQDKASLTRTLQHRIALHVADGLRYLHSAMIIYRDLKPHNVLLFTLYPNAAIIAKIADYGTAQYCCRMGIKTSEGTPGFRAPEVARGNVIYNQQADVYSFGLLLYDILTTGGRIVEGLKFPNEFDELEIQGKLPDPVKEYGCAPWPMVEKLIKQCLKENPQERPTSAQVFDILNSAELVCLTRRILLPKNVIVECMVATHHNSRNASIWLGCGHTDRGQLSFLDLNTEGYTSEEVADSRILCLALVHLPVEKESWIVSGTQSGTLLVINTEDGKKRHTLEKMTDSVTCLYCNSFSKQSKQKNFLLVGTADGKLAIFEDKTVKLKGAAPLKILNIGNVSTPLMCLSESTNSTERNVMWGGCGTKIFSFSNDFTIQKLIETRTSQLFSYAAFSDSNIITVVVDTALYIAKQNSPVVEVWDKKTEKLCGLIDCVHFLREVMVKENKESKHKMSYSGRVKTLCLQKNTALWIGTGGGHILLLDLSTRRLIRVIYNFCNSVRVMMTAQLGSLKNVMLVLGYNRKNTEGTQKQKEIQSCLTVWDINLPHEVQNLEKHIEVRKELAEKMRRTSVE
PDK1 Direct, sequence (O15530 whole entry): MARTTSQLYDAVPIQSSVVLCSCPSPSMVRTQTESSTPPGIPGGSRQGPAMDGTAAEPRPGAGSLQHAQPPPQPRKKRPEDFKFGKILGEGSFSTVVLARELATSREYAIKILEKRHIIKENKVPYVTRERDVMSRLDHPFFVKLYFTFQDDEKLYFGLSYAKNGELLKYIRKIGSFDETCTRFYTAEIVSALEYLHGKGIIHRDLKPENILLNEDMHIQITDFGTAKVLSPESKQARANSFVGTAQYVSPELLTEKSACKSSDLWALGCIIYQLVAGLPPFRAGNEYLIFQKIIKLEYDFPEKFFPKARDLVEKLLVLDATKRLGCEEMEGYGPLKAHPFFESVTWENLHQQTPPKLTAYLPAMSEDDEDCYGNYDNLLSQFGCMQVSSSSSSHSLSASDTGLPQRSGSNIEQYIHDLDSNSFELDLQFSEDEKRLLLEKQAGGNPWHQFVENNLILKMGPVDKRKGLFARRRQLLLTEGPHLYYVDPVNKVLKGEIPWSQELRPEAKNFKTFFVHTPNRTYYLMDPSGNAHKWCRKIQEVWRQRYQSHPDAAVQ
CSNK1A1 (CK1 alpha 1), sequence (P48729 whole entry): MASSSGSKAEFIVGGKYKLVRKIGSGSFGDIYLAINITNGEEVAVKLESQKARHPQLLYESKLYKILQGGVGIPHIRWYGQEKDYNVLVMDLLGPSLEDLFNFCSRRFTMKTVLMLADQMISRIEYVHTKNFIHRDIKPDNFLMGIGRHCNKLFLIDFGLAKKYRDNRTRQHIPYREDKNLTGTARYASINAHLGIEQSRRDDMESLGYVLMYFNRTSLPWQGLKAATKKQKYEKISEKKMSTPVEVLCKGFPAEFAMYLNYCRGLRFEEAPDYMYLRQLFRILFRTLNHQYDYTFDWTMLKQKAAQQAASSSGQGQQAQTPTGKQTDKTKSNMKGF
LRRK2 G2019S FL, sequence (Q5S007 whole entry G2019S): as the sequence (Q5S007 whole entry I2020T) above, with G2019S, T2020I counted along it
P450 2C19, sequence (P33261 whole entry): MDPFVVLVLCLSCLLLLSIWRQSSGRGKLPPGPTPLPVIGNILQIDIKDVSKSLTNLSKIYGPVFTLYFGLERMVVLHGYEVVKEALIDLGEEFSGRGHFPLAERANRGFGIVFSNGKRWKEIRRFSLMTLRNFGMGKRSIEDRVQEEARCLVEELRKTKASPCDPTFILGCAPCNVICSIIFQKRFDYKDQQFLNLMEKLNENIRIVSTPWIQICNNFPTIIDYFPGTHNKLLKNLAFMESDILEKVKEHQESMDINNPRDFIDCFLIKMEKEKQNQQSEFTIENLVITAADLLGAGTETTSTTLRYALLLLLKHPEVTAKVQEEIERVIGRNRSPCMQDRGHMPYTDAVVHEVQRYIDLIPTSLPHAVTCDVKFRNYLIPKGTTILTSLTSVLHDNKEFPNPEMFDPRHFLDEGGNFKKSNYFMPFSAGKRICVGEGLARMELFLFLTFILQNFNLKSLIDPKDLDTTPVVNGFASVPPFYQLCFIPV
MAPK9 (JNK2), sequence (P45984 whole entry): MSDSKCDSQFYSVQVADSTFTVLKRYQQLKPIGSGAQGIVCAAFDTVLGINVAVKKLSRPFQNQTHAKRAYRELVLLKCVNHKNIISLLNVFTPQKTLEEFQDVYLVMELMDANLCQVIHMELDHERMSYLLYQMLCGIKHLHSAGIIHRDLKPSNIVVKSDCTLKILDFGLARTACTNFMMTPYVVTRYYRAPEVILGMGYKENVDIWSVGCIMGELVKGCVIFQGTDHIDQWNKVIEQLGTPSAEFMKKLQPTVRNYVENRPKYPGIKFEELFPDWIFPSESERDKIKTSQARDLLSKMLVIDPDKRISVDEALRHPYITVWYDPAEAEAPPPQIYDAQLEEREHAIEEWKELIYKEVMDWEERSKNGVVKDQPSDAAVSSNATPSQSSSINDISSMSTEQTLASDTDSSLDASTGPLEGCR
LIMK2, sequence (P53671 whole entry): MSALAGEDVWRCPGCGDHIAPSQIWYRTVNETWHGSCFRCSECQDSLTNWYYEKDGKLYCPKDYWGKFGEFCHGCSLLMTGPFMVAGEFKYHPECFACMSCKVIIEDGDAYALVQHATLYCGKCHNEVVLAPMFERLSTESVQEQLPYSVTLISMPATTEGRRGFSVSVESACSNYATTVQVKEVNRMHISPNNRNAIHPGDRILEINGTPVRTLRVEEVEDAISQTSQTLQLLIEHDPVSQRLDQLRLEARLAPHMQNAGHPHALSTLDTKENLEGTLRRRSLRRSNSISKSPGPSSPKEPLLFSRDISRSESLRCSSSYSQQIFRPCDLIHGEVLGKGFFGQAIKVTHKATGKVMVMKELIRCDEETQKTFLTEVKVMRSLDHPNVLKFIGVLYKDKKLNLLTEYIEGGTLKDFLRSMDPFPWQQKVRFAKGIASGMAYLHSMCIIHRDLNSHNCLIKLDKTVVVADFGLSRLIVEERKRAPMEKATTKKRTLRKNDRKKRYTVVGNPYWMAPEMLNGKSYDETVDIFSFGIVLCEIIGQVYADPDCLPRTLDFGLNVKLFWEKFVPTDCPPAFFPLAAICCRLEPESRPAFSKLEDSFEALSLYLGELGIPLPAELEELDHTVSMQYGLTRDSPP

O=C(c1ccc(/C=C/c2n[nH]c3ccccc23)cc1)N1CCNCC1 [KW-2449]
inhibition at 10 µM (ABL1 F317L): 98%
inhibition at 10 µM (ABL1 H396P): 78%
inhibition at 10 µM (ABL1 M351T): 52%
inhibition at 10 µM (ALK C1156Y): 76%
inhibition at 10 µM (AMPK (A1/B2/G2)): 99%
inhibition at 10 µM (AMPK (A1/B2/G3)): 99%
inhibition at 10 µM (BMPR1B (ALK6)): 90%
inhibition at 10 µM (CAMK4 (CaMKIV)): 52%
inhibition at 10 µM (CDK11 (Inactive)): 29%
inhibition at 10 µM (CDK11/cyclin C): 53%
inhibition at 10 µM (CLK4): 84%
inhibition at 10 µM (CSNK1A1 (CK1 alpha 1)): 33%
inhibition at 10 µM (CSNK2A2 (CK2 alpha 2)): 38%
inhibition at 10 µM (ERN1): 32%
inhibition at 10 µM (JAK2 JH1 JH2): 96%
inhibition at 10 µM (LATS2): 68%
inhibition at 10 µM (LIMK2): 24%
inhibition at 10 µM (LRRK2 G2019S FL): 100%
inhibition at 10 µM (LRRK2 I2020T): 100%
inhibition at 10 µM (MAP3K2 (MEKK2)): 86%
inhibition at 10 µM (MAP3K5 (ASK1)): 63%
inhibition at 10 µM (MAP4K4 (HGK)): 98%
inhibition at 10 µM (MAPK9 (JNK2)): 87%
inhibition at 10 µM (NTRK1 (TRKA)): 98%
inhibition at 10 µM (PDK1 Direct): 103%
inhibition at 10 µM (PI4K2B (PI4K2 beta)): -1%
inhibition at 10 µM (PIK3C2G (PI3K-C2 gamma)): 2%
inhibition at 10 µM (PIK3CG (p110 gamma)): 8%
inhibition at 10 µM (PIM3): 2%
inhibition at 10 µM (PRKACA (PKA)): 76%
inhibition at 10 µM (PRKX): 96%
inhibition at 10 µM (RET M918T): -40%
inhibition at 10 µM (RET S891A): 97%
inhibition at 10 µM (RPS6KA4 (MSK2)): 75%
inhibition at 10 µM (SGKL (SGK3)): 52%
inhibition at 10 µM (TESK1): 37%
% Inhibition 2C19 EOMCC (P450 2C19): 51%
% Inhibition 2C9 BOMF (P450 2C9): -2%
